Measurements as given in PMC6403188, “Species-Specific Structural Requirements of Alpha-Branched Trehalose Diester Mincle Agonists” (Frontiers in Immunology, 2019).

Tests used:
primary human PBMCs = assay: Cytokine production from primary human PBMCs (multiplex); format: cell-based; conditions: plate-coated compound, 24 h, 5 individual donors
From the text: PBMCs were obtained via leukapheresis from normal donors (AllCells, Berkeley, CA) or fresh blood was obtained from health human donors through a University of Montana Institutional Review Board (IRB) approved protocol. PBMCs obtained via leukapheresis were washed in 1x PBS and cryopreserved in freezing media (50% RPMI, 40% FCS, 10% DMSO) for future use. PBMCs from on-site human donors were separated from whole blood via density gradient separation using Histopaque 1077 (Sigma). Cells were washed in RPMI media containing 10% heat inactivated FBS, penicillin/streptomycin/glutamine (complete media) and resuspended at the desired cell concentration in complete media. Cells were treated with the indicated compound concentrations by addition to plates coated with a serial dilution of the stock compound in diluent (50% isopropanol/50% isooctane, fully evaporated).
(§1) Supernatants were harvested from treated cells following 18–24 h of incubation. Supernatants were analyzed using a DuoSet TNFα ELISA (R&D Systems, Minneapolis, MN) or Luminex multiplex panel for analytes TNFα, IL-1β, IL-6, IFNγ, IL-12p70, and IL-23 (R&D Systems) per the manufacturer's instructions. Multiplex analysis was performed using a Luminex 200 instrument (Luminex Corporation) and analyzed with StarStation2.3 software. ELISAs were read on a plate reader at 450 nm and cytokine concentration was calculated by fitting the standard curve OD values to a 4-parameter logistical model using curve fitting software (XLfit, IDBS, Alameda, CA).
To determine if the abridged cytokine repertoire induced by the compounds from the cell lines was a cell-specific or compound-specific phenomenon, the response of a heterogeneous primary human PBMCs to the αTDE compound library was also evaluated. Primary human PBMCs were incubated with the αTDE compound and supernatants were evaluated by multiplex cytokine ELISA for TNFα, IL-1β, IL-23, IL-6 (Th17 associated) and IFNγ and IL-12p70 (Th1 associated). As with THP-1 cells, robust dose-responsive induction of TNFα and IL-1β was detected, but unlike the THP-1 cells dose-responsive stimulation of IL-6 and IL-23 production was also noted in response to a subset of the αTDE compounds (Figure 5). No production of the Th1-associated IFNγ or IL-12p70 were detected (data not shown). […] Consistent with the previous THP-1 cell responses, the longer chain length compounds, B32-B46, induced minimal cytokine responses only at the highest dose evaluated (Figure 5, right graphs).
Figure 5 Cytokine production from primary human mononuclear cells in response to stimulation with synthetic trehalose diester compounds. […] Cryopreserved PBMCs were thawed and applied to the compound-coated plates and incubated at 37°C; supernatant was harvested 24 h later and analyzed for TNFα, IL-1β, IL-23, IL-6. […]

[1] = test system: Hek Blue human or mouse Mincle-expressing cells; format: cell-based; conditions: top concentrations, 24 h; compared with vehicle only-treated cells
mouse Mincle = target: T1, mouse Mincle (Mus musculus, UniProt Q9R0Q8); assay: HEK cells expressing mouse Mincle with NF-κB-driven SEAP reporter; format: cell-based; conditions: for EC50: average calculated EC50, n = 3, read-out: mMincle EC50 (converted); for EC50 / SEAP induction / activation of mouse Mincle-expressing HEK cells (in words): plate-coated compound, 24 h; for Relative activity in mouse vs. human Mincle HEK cells: comparison of mouse and human Mincle receptor transfected HEK cells
T1 construct: host or cells: HEK (HEK-Blue) cells with NF-κB-driven SEAP reporter
T1 sequence (Q9R0Q8 1-214): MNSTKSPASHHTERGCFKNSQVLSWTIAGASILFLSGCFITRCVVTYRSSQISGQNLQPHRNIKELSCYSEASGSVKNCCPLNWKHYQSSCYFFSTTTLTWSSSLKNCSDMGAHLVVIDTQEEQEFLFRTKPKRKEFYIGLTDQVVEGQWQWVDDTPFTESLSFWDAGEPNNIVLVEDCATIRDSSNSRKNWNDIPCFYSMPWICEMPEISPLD
Method: (§2) Human and mouse Mincle expressing HEK cells were obtained from Invivogen (San Diego, CA). Cells were cultured according to the manufactures instructions in DMEM with 10% FBS, 50 U/ml penicillin, […] streptomycin, […] Normocin, 2 mM L-glutamine, 30 μg/ml blasticidin, 1 μg/ml puromycin and 1x HEK-Blue™ CLR Selection. For assay, indicated compounds were serially diluted in diluent (50%IPA/50% isooctane), 20 μl of a 10x final concentration were applied to the bottom of a 96-well tissue culture plate and the solvent was evaporated for >1 h in a biosafety hood. HEK cells were applied to the plates at a density of 3 × 10^5 cells/well and incubated for 18–24 h at 37°C. Cell supernatants were harvested and analyzed via the manufacturer's instructions using Hek-Blue^TM Detection. SEAP activity was assessed by reading the optical density (OD) at 620–655 nm with a microplate reader; data are expressed as the fold change in OD over vehicle treated cells.
(§3) To investigate the capacity of these molecules to bind to and activate the Mincle receptor, we used human embryonic kidney (HEK) cells expressing the human or mouse Mincle receptor along with an NF-κB-driven secreted embryonic alkaline phosphatase (SEAP) reporter. Many of the αTDE compounds were able to induce production of SEAP in a dose dependent manner (Figure 2). HEK null cells (HEK cells containing the NF-kB reporter without Mincle receptor) were used as a negative controls to confirm the receptor specificity of the compounds in HEK cells expressing human or mouse Mincle reporter (Supplemental Figure 4). […] The relative activity of TDM and TDB in the human and mouse HEK cells is consistent with the results reported by others ([20]). […] This synthetic version is a shorter chain version of the lipid-derived one reported to be “human-specific” ([28]).
(§4) Figure 2 Activation of human or mouse Mincle in response to synthetic αTDE compounds. The indicated compounds were dissolved in 50% isopropanol/isooctane, serially diluted in vehicle and then dried to the bottom of a tissue culture plate. HEK cells transfected with human (A–C) or mouse (D–F) Mincle and an NF-κB-driven SEAP reporter were incubated with the compounds for 24 h followed by assessment of the supernatants for SEAP levels. Data are represented as fold change in OD650 over vehicle treated cells. Graphs are mean values from three independent experiments ± SEM. Table in (G) represents the average calculated EC50 and average max SEAP value (± SD, n = 3) for each compound in each cell line. […]

human Mincle = target: T2, human Mincle (Homo sapiens, UniProt Q9ULY5); assay: HEK cells expressing human Mincle with NF-κB-driven SEAP reporter; format: cell-based; conditions: plate-coated compound, 24 h; for EC50: average calculated EC50, n = 3, read-out: hMincle EC50 (converted)
T2 construct: host or cells: HEK (HEK-Blue) cells with NF-κB-driven SEAP reporter
T2 sequence (Q9ULY5 1-219): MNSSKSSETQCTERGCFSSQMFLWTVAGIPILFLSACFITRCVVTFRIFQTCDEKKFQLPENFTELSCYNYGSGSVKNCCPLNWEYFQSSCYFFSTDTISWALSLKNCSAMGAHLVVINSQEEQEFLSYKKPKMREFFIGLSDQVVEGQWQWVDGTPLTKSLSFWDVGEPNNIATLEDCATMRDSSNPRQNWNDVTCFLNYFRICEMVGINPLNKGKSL
Method: as §2, §3, §4

THP-1 cells = assay: TNFα production from THP-1 cells (ELISA); format: cell-based, human; conditions: plate-coated compound, 24 h
Method: as §1
Next, investigation into activity of the alpha-branched TDE compounds was extended to include both human and murine monocytic cell lines, THP-1 and RAW264.7, respectively. These cell lines have previously been reported as responsive to the Mincle receptor agonists TDM and TDB ([30], [31]).
Figure 3 TNFα production from human THP-1 cells in response to stimulation with synthetic αTDE compounds. The indicated compounds were dissolved in 50% isopropanol/isooctane, serially diluted in vehicle and then dried to the bottom of a tissue culture plate. THP-1 cells were applied to the compound-coated plates and incubated at 37°C; supernatant was harvested 24 h later and analyzed for TNFα via ELISA (A-E). Results from the 200 μg/ml concentration vs. each compounds acyl chain length are shown in (F). Data points are average of at least two independent experiments ± SD.

Row | EC50 (human Mincle) | SMILES | Cell viability of Mincle HEK cells [1] | EC50 (mouse Mincle) | other results
1 | – | CC(C)C(=O)OC[C@H]1O[C@H](O[C@H]2O[C@H](COC(=O)C(C)C)[C@@H](O)[C@H](O)[C@H]2O)[C@H](O)[C@@H](O)[C@@H]1O [Compound B4] | – | – | Th17-associated cytokine production (TNFα, IL-1β, IL-6, IL-23) from human PBMCs (primary human PBMCs): mixed responses
2 | – | CCCCCC(CCCCC)C(=O)OC[C@H]1O[C@H](O[C@H]2O[C@H](COC(=O)C(CCCCC)CCCCC)[C@@H](O)[C@H](O)[C@H]2O)[C@H](O)[C@@H](O)[C@@H]1O [Compound B12] | marked decreases in viability | 1260 nM | –
3 | – | CCCCCCC(CCCCCC)C(=O)OC[C@H]1O[C@H](O[C@H]2O[C@H](COC(=O)C(CCCCCC)CCCCCC)[C@@H](O)[C@H](O)[C@H]2O)[C@H](O)[C@@H](O)[C@@H]1O [Compound B14] | less substantial decreases | 1520 nM | –
4 | 263 nM | CCCCCCCCCCCCC(CCCCCCCCCCCC)C(=O)OC[C@H]1O[C@H](O[C@H]2O[C@H](COC(=O)C(CCCCCCCCCCCC)CCCCCCCCCCCC)[C@@H](O)[C@H](O)[C@H]2O)[C@H](O)[C@@H](O)[C@@H]1O [Compound B26] | – | 907 nM | TNFα induction from THP-1 cells (in words) (THP-1 cells): roughly equivalent levels of TNFα as B14/B16
5 | 77.4 nM | CCCCCCCCCCCCCC(CCCCCCCCCCCCC)C(=O)OC[C@H]1O[C@H](O[C@H]2O[C@H](COC(=O)C(CCCCCCCCCCCCC)CCCCCCCCCCCCC)[C@@H](O)[C@H](O)[C@H]2O)[C@H](O)[C@@H](O)[C@@H]1O [Compound B28] | – | 592 nM | –
6 | 43.8 nM | CCCCCCCCCCCCCCC(CCCCCCCCCCCCCC)C(=O)OC[C@H]1O[C@H](O[C@H]2O[C@H](COC(=O)C(CCCCCCCCCCCCCC)CCCCCCCCCCCCCC)[C@@H](O)[C@H](O)[C@H]2O)[C@H](O)[C@@H](O)[C@@H]1O [Compound B30] | – | 955 nM | –
7 | 50.2 nM | CCCCCCCCCCCCCCCC(CCCCCCCCCCCCCCC)C(=O)OC[C@H]1O[C@H](O[C@H]2O[C@H](COC(=O)C(CCCCCCCCCCCCCCC)CCCCCCCCCCCCCCC)[C@@H](O)[C@H](O)[C@H]2O)[C@H](O)[C@@H](O)[C@@H]1O [Compound B32] | – | 64.4 nM | –
8 | 21400 nM | CCCCCCCCCCCCCCCCCC(CCCCCCCCCCCCCCCCC)C(=O)OC[C@H]1O[C@H](O[C@H]2O[C@H](COC(=O)C(CCCCCCCCCCCCCCCCC)CCCCCCCCCCCCCCCCC)[C@@H](O)[C@H](O)[C@H]2O)[C@H](O)[C@@H](O)[C@@H]1O [Compound B36] | – | 25800 nM | –
9 | – | CCCCCCCCCCCCCCCC(O)C(CCCCCCCCCCCCCC)C(=O)OCC(O)CO (stereo not drawn) [MMG, synthetic glycerol monomycolate, reference compound] | – | – | Relative activity in mouse vs. human Mincle HEK cells (mouse Mincle): more potent in mouse Mincle HEK cells; SEAP induction / activation of mouse Mincle-expressing HEK cells (in words) (mouse Mincle): able to activate; SEAP induction / activation of human Mincle-expressing HEK cells (in words) (human Mincle): able to activate; TNFα induction from THP-1 cells (in words) (THP-1 cells): potent, robust induction of TNFα
10 | – | CCCCCCCCCCCCCCCC(O)C(CCCCCCCCCCCCCC)C(=O)OC[C@H]1O[C@H](O[C@H]2O[C@H](COC(=O)C(CCCCCCCCCCCCCC)C(O)CCCCCCCCCCCCCCC)[C@@H](O)[C@H](O)[C@H]2O)[C@H](O)[C@@H](O)[C@@H]1O (stereo partly drawn) [sTDCM, synthetic trehalose dicorynomycolate, reference compound] | – | – | Relative activity in mouse vs. human Mincle HEK cells (mouse Mincle): more potent in the mouse vs. the human; SEAP induction / activation of mouse Mincle-expressing HEK cells (in words) (mouse Mincle): robust ability to activate; SEAP induction / activation of human Mincle-expressing HEK cells (in words) (human Mincle): robust ability to activate; TNFα induction from THP-1 cells (in words) (THP-1 cells): potent, robust induction of TNFα

Row | SMILES | EC50 (human Mincle) | Cell viability of Mincle HEK cells [1] | EC50 (mouse Mincle) | other results
11 | CCCCCCCCC(CCCCCCCC)C(=O)OC[C@H]1O[C@H](O[C@H]2O[C@H](COC(=O)C(CCCCCCCC)CCCCCCCC)[C@@H](O)[C@H](O)[C@H]2O)[C@H](O)[C@@H](O)[C@@H]1O [Compound B18] | 405 nM | less substantial decreases | 599 nM | –
12 | CCCCCCCCCC(CCCCCCCCC)C(=O)OC[C@H]1O[C@H](O[C@H]2O[C@H](COC(=O)C(CCCCCCCCC)CCCCCCCCC)[C@@H](O)[C@H](O)[C@H]2O)[C@H](O)[C@@H](O)[C@@H]1O [Compound B20] | 128 nM | less substantial decreases | 328 nM | –
13 | CCCCCCCCCCC(CCCCCCCCCC)C(=O)OC[C@H]1O[C@H](O[C@H]2O[C@H](COC(=O)C(CCCCCCCCCC)CCCCCCCCCC)[C@@H](O)[C@H](O)[C@H]2O)[C@H](O)[C@@H](O)[C@@H]1O [Compound B22] | 322 nM | less substantial decreases | 689 nM | –
14 | CCCCCCCCCCCC(CCCCCCCCCCC)C(=O)OC[C@H]1O[C@H](O[C@H]2O[C@H](COC(=O)C(CCCCCCCCCCC)CCCCCCCCCCC)[C@@H](O)[C@H](O)[C@H]2O)[C@H](O)[C@@H](O)[C@@H]1O [Compound B24] | 92.6 nM | less substantial decreases | 608 nM | –
